In PMC12297423, “Dual α-amylase and α-glucosidase inhibition by 1,2,4-triazole derivatives for diabetes treatment” (Scientific Reports, 2025):
Like-named read-outs stand apart in the source and are kept apart here.

Columns and labels:
[1] = system: Saccharomyces cerevisiae α-glucosidase; test: In vitro α-glucosidase inhibition assay (BioVision kit, pNPG); type: biochemical; details: for %inh α-glucosidase: Table 2S
Method: Using BioVision’s α-Glucosidase Inhibitor Screening Kit (Colorimetric) (Catalogue #K938-100) at (OD: 410 nm), the in vitro α-glucosidase suppression effect for the designed 1,2,4-triazole derivatives 3, 4, 6, 8, 9, and 10 was carried out. The results were analyzed on a multi-well spectrophotometer (ELISA reader) using a 96-well microplate in compliance with the manufacturer’s instructions as previously described[49],[50]. The α-glucosidase inhibition assay was conducted using Saccharomyces cerevisiae α-glucosidase (0.5–1 U/mL in phosphate buffer, pH 6.8). Test compounds (63–1000 µg/mL) were pre-incubated with the enzyme at 37 °C for 10 min, followed by addition of pNPG (5 mM) and further incubation for 30 min. The reaction was stopped with 0.2 M Na2CO3, and absorbance was measured at 405 nm. […] Inhibition (%) was calculated as above, and IC50 values were derived from nonlinear regression analysis Table 2S.

[2] = target: T1, porcine pancreatic α-amylase (Sus scrofa, UniProt P00690); test: In vitro α-amylase inhibition assay (BioVision kit / modified DNSA method); type: biochemical; details: for %inh α-amylase: Table 1S
T1 construct: purchased BioVision K482-100
T1 sequence (P00690 16-511): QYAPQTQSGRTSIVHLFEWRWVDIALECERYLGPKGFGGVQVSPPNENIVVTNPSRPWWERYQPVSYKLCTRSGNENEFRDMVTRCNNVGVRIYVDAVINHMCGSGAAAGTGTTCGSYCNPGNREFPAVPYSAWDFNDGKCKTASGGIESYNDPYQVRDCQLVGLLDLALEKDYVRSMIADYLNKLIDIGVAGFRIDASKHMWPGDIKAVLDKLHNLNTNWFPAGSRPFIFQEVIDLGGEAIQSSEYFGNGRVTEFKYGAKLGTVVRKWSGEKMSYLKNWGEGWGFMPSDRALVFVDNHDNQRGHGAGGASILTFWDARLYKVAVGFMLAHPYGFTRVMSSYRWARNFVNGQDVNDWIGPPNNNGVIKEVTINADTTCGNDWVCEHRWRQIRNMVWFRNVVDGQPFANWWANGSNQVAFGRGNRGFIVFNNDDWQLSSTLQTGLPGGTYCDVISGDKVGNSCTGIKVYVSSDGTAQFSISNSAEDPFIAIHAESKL
Method: The α-amylase inhibition assay was performed using a modified DNSA (3,5-dinitrosalicylic acid) method. Test compounds (dissolved in DMSO) were serially diluted (100, 10, 1, 0.1, and 0.01 µg/mL) and pre-incubated with porcine pancreatic α-amylase (0.5 U/mL in phosphate buffer, pH 6.8) at 37 °C for 10 min. Starch solution (1% w/v) was added, and the reaction proceeded for 30 min at 37 °C. The reaction was terminated by adding DNSA reagent, followed by heating at 85 °C for 10 min. Absorbance was measured at 540 nm using a microplate reader. […] The percentage inhibition was calculated as: [(Acontrol–Asample)/Acontrol] × 100, where Acontrol represents enzyme activity without inhibitor. IC50 values were determined from dose-response curves using GraphPad Prism. Kinetic parameters (KActivity) were derived from ∆RFU (Relative Fluorescence Units) and slope values Table 1S.

[3] = read-out: α-amylase inhibition IC50 (converted)
[4] = table printed in Fig. 9, read-out: α- Amylase IC50 (converted)

Row | Structure (SMILES) | %inh α-glucosidase ([1]; conc 63 (µg/mL)) [%] | %inh α-glucosidase ([1]; conc 125 (µg/mL)) [%] | %inh α-glucosidase ([1]; conc 250 (µg/mL)) [%] | %inh α-glucosidase ([1]; conc 500 (µg/mL)) [%] | %inh α-glucosidase ([1]; conc 1000 (µg/mL)) [%] | α-glucosidase inhibition IC50 [1] [µg/mL] | %inh α-amylase ([2]; conc 0.01 (µg/mL)) [%] | %inh α-amylase ([2]; conc 0.1 (µg/mL)) [%] | %inh α-amylase ([2]; conc 1 (µg/mL)) [%] | %inh α-amylase ([2]; conc 10 (µg/mL)) [%] | %inh α-amylase ([2]; conc 100 (µg/mL)) [%] | IC50 [2, 3] [µM] | IC50 [2, 4] [µM]
1 | C[C@H]1O[C@H](O[C@H]2[C@H](O)[C@@H](O)[C@@H](O[C@H]3[C@H](O)[C@@H](O)C(O)O[C@@H]3CO)O[C@@H]2CO)[C@H](O)[C@@H](O)[C@@H]1N[C@H]1C=C(CO)[C@@H](O)[C@H](O)[C@H]1O (some centres unmarked) [Acarbose, reference compound] | 8.91 | 28 | 40.6 | 58.6 | 76.8 |  |  |  |  |  |  |  | 
2 | COc1ccc(Cc2nnc(SCC(=O)Nc3ccccc3)n2-c2ccccc2)cc1 [Compound 3, 2-((5-(4-methoxybenzyl)-4-phenyl-4H-1,2,4-triazol-3-yl)thio)-N-phenylacetamide] | 15.7 | 30 | 40.9 | 58.5 | 77 | 0.36 ± 0.01 | 19.9 | 36.7 | 58.4 | 83.4 | 92.3 | 0.859 | 0.876
3 | COc1ccc(Cc2nnc(SCC(=O)Nc3ccc(C(C)=O)cc3)n2-c2ccccc2)cc1 [Compound 4, N-(4-acetylphenyl)-2-((5-(4-methoxybenzyl)-4-phenyl-4H-1,2,4-triazol-3-yl)thio)acetamide] | 19.9 | 36.6 | 50.9 | 63.6 | 82.4 | 0.27 ± 0.01 | 25.8 | 44.6 | 62.6 | 85.7 | 93.1 | 0.402 | 0.419
4 | COc1ccc(Cc2nnc(SCC(=O)Nc3ccc(C(=O)O)cc3)n2-c2ccccc2)cc1 [Compound 6, 4-(2-((5-(4-methoxybenzyl)-4-phenyl-4H-1,2,4-triazol-3-yl)thio)acetamido)benzoic acid] | 1.67 | 4.01 | 7.55 | 28.9 | 69.2 | 0.83 ± 0.03 | 14.4 | 19.9 | 40.6 | 74.1 | 91.3 | 2.61 | 2.62
5 | CCOC(=O)c1ccc(NC(=O)CSc2nnc(Cc3ccc(OC)cc3)n2-c2ccccc2)cc1 [Compound 8, Ethyl 4-(2-((5-(4-methoxybenzyl)-4-phenyl-4H-1,2,4-triazol-3-yl)thio)acetamido)benzoate] | 1.46 | 5.94 | 18.4 | 38.9 | 67.3 | 0.67 ± 0.02 | 12 | 29.3 | 41.6 | 63.1 | 88.7 | 2.89 | 2.89
6 | COc1ccc(Cc2nnc(SCC(=O)Nc3ccc(O)cc3)n2-c2ccccc2)cc1 [Compound 9, N-(4-hydroxyphenyl)-2-((5-(4-methoxybenzyl)-4-phenyl-4H-1,2,4-triazol-3-yl)thio)acetamide] | 4.22 | 7.76 | 14 | 31.9 | 68.2 | 0.77 ± 0.02 | 20.6 | 35.3 | 48.3 | 73.3 | 90 | 1.41 | 1.42
7 | COc1ccc(Cc2nnc(SCC(=O)Nc3ccc(Br)cc3)n2-c2ccccc2)cc1 [Compound 10, N-(4-bromophenyl)-2-((5-(4-methoxybenzyl)-4-phenyl-4H-1,2,4-triazol-3-yl)thio)acetamide] | 16.3 | 25.1 | 39.9 | 58 | 82.8 | 0.31 ± 0.01 | 29.2 | 41.2 | 56.1 | 77.6 | 92.3 | 0.51 | 0.528
